Assay results from patent publication US9138431B2, “Methods of treatment of histamine H-4 receptor-related pruritus” (BRIDGE PHARMA, INC., priority 2013, dated 2015).
Where two headings read alike, the source gives them in different places. One block for each compound: values may come before it.

How the values were obtained:
[1] = test system: pruritus induced by interleukin-31 (IL-31); details: recent study; cited from earlier work
[2] = test system: histamine-induced pruritus; experiment: Antipruritic activity, histamine-induced pruritus in mice; format: in vivo, CD-1 mice; details: for Inhibition of histamine-induced pruritus (bouts of scratches): oral dosing 60 min before intradermal histamine 300 nmol, references 20 mg/kg, norketotifen escalating doses
Description: Antipruritic effects were tested in vivo in CD-1 mice, females, 10-12 weeks, according to methods known in the art. The hair was clipped over the rostral part of the back at the interscapular level of the mice one day before the dosing. Before the testing, the mice were placed in individual clear plastic cages for at least one hour for acclimation. After fasting for 1.5 hours, the animals were dosed orally with the test article, dissolved in a vehicle consisting of 1% methylcellulose/water, 10 mL/kg body weight. Sixty minutes after the oral dosing, an intradermal injection of histamine (300 nmol in 20 μl phosphate buffered saline (PBS), pH 7.4) was administered. Immediately after the histamine injection, the bouts of scratches were counted for 40 min. Scratching induced by the histamine vehicle PBS served as control.
Norketotifen was tested in escalating doses and in a supramaximal dose of 100 mg/kg.

[3] = test system: human granulocytes (leukocytes; buffy coat); experiment: Inhibition of histamine release from human granulocytes (A23187-induced); format: cell-based; details: for IC50: Homo sapiens, Leukocyte, 20 min, histamine release induced by A23187 5 μM, 20 min/37° C., read-out: Inhibition of mediator release IC50
Description: Histamine is excessively released from granulocytes in patients with pruritic diseases. The inhibition of histamine release from human granulocytes (leukocytes; buffy coat) by test articles was studied. Leukocytes were obtained from blood from healthy human volunteers and release of histamine was induced by incubation (20 min/37° C.) of the buffy coats with the calcium ionophore A23187 (5 μM) in the presence or absence of a test article. Histamine was analyzed by enzyme-immune assays, using commercially available kits and a microplate reader (MRX, Dynatech). The test articles were evaluated, in duplicate, at five concentrations.

[4] = Sedation in human subjects; format: in vivo; details: doses of 5 mg and 10 mg
[5] = Repeat-dose pharmacological and toxicological studies in dogs (sedation, tolerability); format: in vivo; details: daily doses up to 20 mg/kg/day
Source text: Dogs vomit spontaneously for a variety of benign reasons—to expel unwanted content from their stomach, as a result of gastric irritation or in response to colonic irritation. In recent toxicological studies in dogs of various drugs, including isomeric norketotifen, vomiting occurred in both control groups and drug groups and may have been treatment-related, rather than drug-related. The unexpectedly low systemic toxicity of norketotifen and the isomers thereof is believed to be due to low systemic (plasma) concentrations, caused by the fact that norketotifen and the isomers thereof are not circulating in plasma but are accumulating in the skin, which is the largest organ in the body.

[6] = biological target: human histamine H-1 Receptor (Homo sapiens (Human), UniProt P35367); experiment: Binding to histamine H-1 receptors; details: read-out: Human H-1 receptors IC50, heading: Human H-1 receptors IC50
Description: (§1) Affinities of the test compounds for peripheral human histamine H-1-receptors were assessed using receptor-binding assays. The specific binding of the radioactive ligand to the receptor was defined as the difference between total binding and nonspecific binding, determined in the presence of excess unlabeled ligand. Ki-values were determined according to the Cheng-Prusoff equation.

[7] = test system: histamine-induced pruritus; details: intradermal histamine, humans and mice; general statement; cited from earlier work
[8] = Dermal drug accumulation after oral administration (plasma and skin PK); format: in vivo, beagle dogs; details: Day 28, oral 8.0 mg/kg/day hydrogen fumarate salt, dogs
Description: Five male beagle dogs, weighing 11.2-13.9 kg (2-4 years old) were used in the study. All animals were administered gelatin capsules containing oral doses of the test article 8.0 mg/kg/day as a hydrogen fumarate salt, equal to 5.6 mg/kg/day of the free base. The animals were dosed once daily for four consecutive weeks followed by daily observations for an additional two-week washout period.
Multiple plasma samples and skin biopsies were taken from each dog on Day 1 and Day 28 of drug administration. The plasma and skin samplings were performed at pre-dose, and at 2, 6, 12 and 24 hours post-dose. Plasma and skin samples were also taken intermittently at predetermined intervals during the 28-days dosing period and up to the last day of the study, which was Day 42. Blood samples were taken from v. Cephalica antebrachii. Skin biopsies were taken from the area between the mid ventral to lateral abdominal areas, using a 6 mm (diameter) skin biopsy device (Acu-Punch®, Acuderm® Inc., Fort Lauderdale, Fla. 33309). Multiple plasma and biopsy samples were obtained from each of 4 or 5 dogs. Subcutaneous fat deposits were carefully trimmed from the skin samples and the skin samples were weighed. All plasma and skin samples were kept
The plasma samples and skin biopsy samples were analyzed using LC/MS/MS methodology. All pharmacokinetic analyses were performed using Pharsight WinNonlin® Professional v5.2.1 software.

[9] = biological target: human histamine H-4 Receptor (Homo sapiens (Human), UniProt Q9H3N8); experiment: Binding to histamine H-4 receptors ([3H]-histamine ligand); details: Cheng-Prusoff, read-out: Human H-4 receptor affinity (Ki)
Description: as §1, with “H-4-receptors” for “H-1-receptors”, “[^3H]-histamine was used as the ligand in this study and the affinity values” for “Ki-values”

human histamine H-1 Receptor, sequence (P35367 whole entry): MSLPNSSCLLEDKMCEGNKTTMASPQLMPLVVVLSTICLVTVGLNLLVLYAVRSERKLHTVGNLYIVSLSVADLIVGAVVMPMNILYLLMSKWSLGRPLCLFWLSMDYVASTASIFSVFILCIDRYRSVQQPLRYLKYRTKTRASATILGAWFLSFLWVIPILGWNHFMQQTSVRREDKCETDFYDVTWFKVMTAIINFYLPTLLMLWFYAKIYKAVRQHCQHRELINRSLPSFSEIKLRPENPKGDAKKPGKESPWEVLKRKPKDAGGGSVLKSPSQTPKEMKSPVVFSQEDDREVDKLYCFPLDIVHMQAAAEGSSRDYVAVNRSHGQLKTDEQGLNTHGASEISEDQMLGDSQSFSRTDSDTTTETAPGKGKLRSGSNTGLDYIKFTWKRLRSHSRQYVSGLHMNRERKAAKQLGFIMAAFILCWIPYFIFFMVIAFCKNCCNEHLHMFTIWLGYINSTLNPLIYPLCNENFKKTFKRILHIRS

Structure (SMILES): CN1CCN(C(=O)c2cc3cc(Cl)ccc3[nH]2)CC1 [JNJ7777120, reference compound]
Inhibition of IL-31-induced pruritus [1]: failed to inhibit
Inhibition of histamine-induced pruritus (bouts of scratches) [2]: potently inhibited

Structure (SMILES): O=C1Cc2ccccc2C(=C2CCNCC2)c2ccsc21 [Norketotifen, norketotifen]
IC50 [3]: 9.2 µM
Potency relative to ketotifen as inhibitor of histamine release ([3]; human inflammatory cells): approximately 10 times
Sedation [4]: do not produce sedation
Sedation or other adverse events, chronic dosing [5]: without causing sedation or other adverse events
IC50 ([6]; listed as RS-NORKETOTIFEN): 0.011 µM
Inhibition of histamine-induced pruritus at supramaximal dose ([2]; norketotifen 100 mg/kg oral): complete inhibition
Inhibition of histamine-induced pruritus (bouts of scratches) [2]: dose-dependently inhibiting
Inhibition of histamine-induced pruritus (bouts of scratches) ([2]; listed as norketotifen): potently inhibited

Structure (SMILES): CC(C)(C(=O)O)c1ccc(C(O)CCCN2CCC(C(O)(c3ccccc3)c3ccccc3)CC2)cc1 (stereo not drawn) [fexofenadine]
Inhibition of pruritus following histamine injections by H-1 inhibitors [7]: not inhibited

Structure (SMILES): O=C(O)/C=C/C(=O)O.O=C1Cc2ccccc2C(=C2CCNCC2)c2ccsc21 [R-NORKETOTIFEN, R-norketotifen]
MRT Plasma [8]: 14.1 h
t1/2 Plasma [8]: 7.7 h
MRT Skin [8]: 159.1 h
t1/2 Skin [8]: 157.0 h
IC50 [6]: 0.017 µM
Ki [9]: 2.3 µM

IC50 [3]: 91 µM
Structure (SMILES): CN1CCC(=C2c3ccccc3CC(=O)c3sccc32)CC1 [Ketotifen, ketotifen, reference compound]

Structure (SMILES): O=C1Cc2ccccc2C(=C2CCNCC2)c2ccsc21 [S-NORKETOTIFEN, S-norketotifen]
MRT Plasma [8]: 11.3 h
t1/2 Plasma [8]: 10.9 h
MRT Skin [8]: 159.0 h
t1/2 Skin [8]: 162.7 h
IC50 [6]: 0.023 µM
Ki [9]: 1.1 µM
